Results: patent publication US11442059B2, “Method for treating a chronic itch condition by administering small molecule MrgprX4 antagonists” (The Johns Hopkins University, priority 2017, dated 2022)
Non-standard residues stand in square brackets, D forms with d. Residues, ends and D or L forms follow the SMILES beside them. *: point of attachment. Boc = CC(C)(C)OC(=O)*; OBn = c1ccc(CO*)cc1; For = O=C*

How the values were obtained:
mice [1] = system: mice
MRGPRX4 [2] = target: T1, MRGPRX4 (Homo sapiens, UniProt Q96LA9); assay: Microscale thermophoresis binding assay, MRGPRX4; set-up: expressed in transfected cells; whole cells or crude membrane fraction; settings: FIG. 24J
T1 sequence (Q96LA9 whole entry): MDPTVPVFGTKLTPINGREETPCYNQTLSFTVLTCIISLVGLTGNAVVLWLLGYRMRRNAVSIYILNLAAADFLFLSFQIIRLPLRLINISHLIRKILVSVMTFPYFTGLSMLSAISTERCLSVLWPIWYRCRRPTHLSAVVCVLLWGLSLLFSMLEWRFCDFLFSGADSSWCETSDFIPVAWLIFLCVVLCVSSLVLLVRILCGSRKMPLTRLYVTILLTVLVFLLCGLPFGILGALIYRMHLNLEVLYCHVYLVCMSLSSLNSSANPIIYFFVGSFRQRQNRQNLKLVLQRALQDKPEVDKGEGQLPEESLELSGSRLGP
Protocol: (§1) Binding isotherms for MRGPRA1, MRGPRX4, and MRGRPC11 towards various ligands were determined by microscale thermophoresis with the NanoTemper monolith NT.115 instrument^27. Ligands were pre-incubated with 10 μM of the GFP-tagged receptor of interest for 5 minutes at room temperature in binding buffer (20 mM Tris and 150 mM NaCl at pH 8.8). Receptors were crudely purified as a membrane fraction from cells stably expressing the receptor^45. Haem metabolites were freshly dissolved in 0.1 M NaOH in dim light and then diluted into assay buffer. Lyophilized BAMS-22 was dissolved in binding buffer. The pH of each ligand was evaluated prior to incubation with a receptor. Samples were loaded into NT.115 Hydrophobic-Treated Capillaries from NanoTemper. Microscale thermophoretic experiments were executed using 20% LED power and 15% MST power. KDs were calculated using the law of mass action with data from three independent experiments. Binding between bilirubin and receptors was evaluated purely thermophoretically, whereas binding between BAMS-22 and MRGPRC11 was evaluated by T-Jump. Samples with dramatic deviations in initial fluorescence were excluded.

MrgprA1 [3] = target: T2, MrgprA1 (Mus musculus, UniProt Q91WW5); assay: Microscale thermophoresis binding assay, MRGPRA1; settings: FIG. 24E
T2 construct: expressed in transfected cells; whole cells or crude membrane fraction
T2 sequence (Q91WW5 1-304): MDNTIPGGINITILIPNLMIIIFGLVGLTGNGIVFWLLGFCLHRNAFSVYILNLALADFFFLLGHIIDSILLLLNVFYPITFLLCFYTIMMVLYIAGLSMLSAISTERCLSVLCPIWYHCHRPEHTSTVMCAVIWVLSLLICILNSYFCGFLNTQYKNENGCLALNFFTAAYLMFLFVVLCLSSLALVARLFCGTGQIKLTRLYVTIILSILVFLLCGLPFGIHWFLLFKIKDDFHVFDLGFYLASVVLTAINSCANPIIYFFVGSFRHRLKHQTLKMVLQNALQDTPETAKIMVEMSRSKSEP
Protocol: as §1

MrgprA1 [4] = target: T2, MrgprA1; assay: Fura 2-AM calcium imaging, EC50 and IC50 determinations, MRGPRA1 HEK293 cells; type: cell-based
Protocol: (§2) Cells were imaged in calcium imaging buffer (CIB; 10 mM HEPES, 1.2 mM NaHCO3, 130 mM NaCl, 3 mM KCl, 2.5 mM CaCl2, 0.6 mM MgCl2, 20 mM glucose, and 20 mM sucrose at pH 7.4 and 290-300 mOsm). To monitor changes in intracellular [Ca^2+] ([Ca^2+]i), cells were loaded with either Fura 2-AM (HEK293 cells) or Fluo 4-AM (DRG neurons and mast cells) for 30 min in the dark at 37° C. in CIB just prior to imaging. With Fura 2-AM, emission at 510 nm was monitored from excitation at both 340 nm and 380 nm. With Fluo 4-AM, emission at 520 nm was monitored from excitation at 488 nm. Cells were identified as responding if the intracellular [Ca^2+] rose by either 50% compared to baseline or 50% compared to the [Ca^2+]i change assayed during addition of 50 mM KCl (neurons only). Damaged, detached, high-baseline, and motion-activated cells were excluded from analysis.
(§3) In initial screens, HEK293 cells stably expressing the murine G-protein alpha-subunit Gα15, a unique Gα protein that non-selectively couples a large variety of GPCRs to phospholipase C^30, were plated on poly-D-lysine-coated coverslips and transiently transfected with constructs encoding the MRGRPR of interest. 12-24 h later, cells were loaded with the Fura 2-AM. Unless otherwise specified, compounds were perfused into the imaging chamber for approximately thirty seconds after a baseline period was established. Response was then monitored at 5 s intervals for an additional 60 s.
(§4) HEK293 cells stably expressing either MRGPRA1, MRGPRX4, and MRGRPC11 were seeded in poly-D-lysine-coated 96-well plates at 10,000 cells/well. Cells were loaded with Fura 2-AM, washed twice, and maintained in CIB. Haem metabolites were freshly dissolved in DMSO in dim light and then diluted into a buffer comprised of 20 mM Tris and 150 mM NaCl at pH 8.8. Potential changes in pH were evaluated prior to each experiment. EC50 values were determined from dose-responses performed in triplicate, repeated 2-4 times. To determine potential antagonism by QWF against bilirubin, cells were treated with varying doses of QWF for 1 min in CIB prior to application of agonist.

MRGPRX4 [5] = target: T1, MRGPRX4; assay: Fura 2-AM calcium imaging, EC50 determinations, MRGPRX4 HEK293 cells; type: cell-based; set-up: expressed in transfected cells; whole cells or crude membrane fraction
Protocol: as §2, §3
as §4, with “To determine potential antagonism by QWF against bilirubin, cells were treated with varying doses of QWF for 1 min in CIB prior to application of agonist.” left out

mice [6] = assay: Acute itch behaviour after injection (scratching bouts); type: in vivo, mouse
MrgprA1 [7] = target: T2, MrgprA1; assay: FLIPR calcium assay (Flexstation3), HEK cells stably expressing MrgprA1; type: cell-based; settings: MrgprA1 HEK cells, FIG. 17B
Protocol: EC50s were calculated using HEK cells stably expressing either MrgprA1 or MrgprX4. Cells were loaded with FLIPR calcium imaging dye, and a Flexstation3 machine (Molecular Devices) was used for reading changes in fluorescence. Wells were run in triplicate, and all values from each plate were normalized to the highest responding well. […] The x-axis depicts a modified logarithmic scale. […] FIG. 18B is a graph depicting the EC50 for MrgprX4 for bilirubin is approximately 3 μM.

[8] = 10 μM pre-incubated 30 minutes, 50 μM bilirubin

Compound: S=C=Nc1cccc2ccccc12 [ANIT, α-naphthyl isothiocyanate]
- reduction in scratching bouts, Cluster KO versus WT littermates (mice [1]; 25 mg/kg ANIT per os daily): ~46%

Compound: C=CC1=C(C)/C(=C/c2[nH]c(Cc3[nH]c(/C=C4\NC(=O)C(C)=C4C=C)c(C)c3CCC(=O)NCCS(=O)(=O)O)c(CCC(=O)NCCS(=O)(=O)O)c2C)NC1=O [Conjugated bilirubin, bilirubin ditaurate]
- binding to MRGPRX4 (MRGPRX4 [2]): lower affinities compared to bilirubin
- binding to MRGPRA1 (MrgprA1 [3]): lower affinities compared to bilirubin
- activation of MRGPRA1-expressing cells (calcium) (MrgprA1 [4]; concentration-Ca2+ response, FIG. 24D): activated
- activation of MRGPRX4-expressing cells (calcium) (MRGPRX4 [5]; concentration-Ca2+ response, FIG. 24I): activated

Compound: CC(C)(C)OC(=O)N[C@@H](CCC(N)=O)C(=O)N[C@H](Cc1cn(C=O)c2ccccc12)C(=O)N[C@@H](Cc1ccccc1)C(=O)OCc1ccccc1 [QWF, BOC-GLN-D-(FORMYL)TRP-PHE-BENZYLESTER] (Boc-Gln-[dW](For)-Phe-OBn)
- scratching versus vehicle-treated animals (mice [1]; ANIT-dosed WT animals, 1 mg/kg i.p. thirty minutes prior to behavioral analysis): scratched significantly less
- plasma levels of total bilirubin, AST, ALT, or ALP (mice [1]; mouse, in vivo, ip, 1 mg/kg): did not change
- effect on pruritus associated with bilirubin (mice [6]; 0.25 mg/kg co-injected with bilirubin): significantly alleviated pruritus
- effect on chloroquine-MRGPRA3 associated itch (mice [6]; co-injected with chloroquine): did not attenuate

Compound: COc1ccc2c(c1)CC[C@@H]1[C@@H]2CC[C@]2(C)[C@@H](NCCCCCCN3C(=O)C=CC3=O)CC[C@@H]12 [U73122]
- effect on bilirubin calcium influx (MrgprA1 [7]): blocked the calcium influx
- effect on bilirubin-induced calcium responses, MRGPRA1 (MrgprA1 [4]; [8]): abolished
- effect on bilirubin-induced calcium responses, MRGPRX4 (MRGPRX4 [5]; [8]): inhibited
